Calls of active or inactive are those of the source. The calls are words filed in the database; no cut-off is given here.
Tests used:
Mus musculus [1] = species: Mus musculus; assay: Evaluated for the percentage blockade of activity in mice; format: functional
Mus musculus [2] = species: Mus musculus; assay: Evaluated for the spontaneous motor activity in mice and the mean total activity (MTA) was reported; Expressed as counts/90 min/3 mice; format: functional
Mus musculus [3] = assay: Ability to stimulate mice at dose of 8 mg/kg; Slight increase in spontaneous motor activity; format: functional, organism-based; parameters: dose 8 mg/kg
Rattus norvegicus [4] = assay: Number of rats falling (1) within each stereotypy classification after intraperitoneal administration (110 uM/Kg); continuous sniffing, some arousal; format: functional, organism-based
Rattus norvegicus [5] = assay: Number of rats falling (3) within each stereotypy classification after intraperitoneal administration (110 uM/Kg); continuous sniffing, some head bobbing and weaving (total rats 4); format: functional, organism-based
Rattus norvegicus [6] = assay: Number of rats falling (4) within each stereotypy classification after intraperitoneal administration (110 uM/Kg); continuous sniffing, with repetitive sequences of head and limb movements, as well as some licking and rearing (total rats 4); format: functional, organism-based

SMILES: CC(N)Cc1ccccc1.COC(=O)C(C)(N)Cc1ccc(O)cc1 (stereo not given)
- Block of activity (Mus musculus [1]): 64.2%
- MTA (Mus musculus [2]): 5144

SMILES: COC(=O)C(C)(N)Cc1ccc(O)cc1.NC1C=Cc2ccccc2C1 (stereo not given)
- Block of activity (Mus musculus [1]): 59.3%
- MTA (Mus musculus [2]): 3491

SMILES: NC1CCc2ccccc2C1 (stereo not given)
- Activity (Mus musculus [3]): Active

SMILES: COC(=O)[C@H]1[C@H]2C[C@@H]3c4[nH]c5cc(OC)ccc5c4CCN3C[C@H]2C[C@@H](OC(=O)c2cc(OC)c(OC)c(OC)c2)[C@@H]1OC.Cl.NC1C=Cc2ccccc2C1 (racemic)
- Activity (Rattus norvegicus [4]): continuous sniffing, some arousal
- Activity (Rattus norvegicus [5]): continuous sniffing, some arousal

SMILES: NC1C=Cc2ccccc2C1 (racemic)
- Activity (Rattus norvegicus [6]): continuous sniffing, with repetitive sequences of head and limb movements, as well as some licking and rearing (total rats 4)

SMILES: Cl.NC1C=Cc2ccccc2C1 (single isomer, unassigned; (-))
- MTA (Mus musculus [2]): 8566

SMILES: C[C@H](N)Cc1ccccc1 [DEXTROAMPHETAMINE]
- MTA (Mus musculus [2]): 14356

— ChEMBL document CHEMBL1122053, “A new, potent, conformationally restricted analogue of amphetamine: 2-amino-1,2-dihydronaphthalene” (1982)
